Measured values as given in US4975433A, “Aminomethyl derivatives of biologically active substances and enhanced delivery thereof across topical membranes” (priority 1989, dated 1990).
Values after ≈ are worked out from the molar mass of the structure shown. Values joined by “and” are separate entries in the source; they are usually repeats but may differ in a detail not shown here. Equal entries are not always repeated. Where two headings read alike, the source gives them in different places. Marks after values point to notes of the source that are not given here. Blank lines part the entries; values can stand above or below the compound they belong to.

Assays:
[1] = cited from earlier work
[2] = delivery of 5-FU, previous data of Mollgaard et al; format: in vitro ADME, human
Description: The diffusion cell data previously reported for the delivery of 5-FU from PG (Mollgaard et al, supra), were analyzed and a flux of 7.8×10^-4 mg/cm^2.hr with a lag time of 17 hr was calculated. […] […]. […] Thus, the present study of delivery of 5-FU appears to be consistent with the observations of Mollgaard et al, supra.
. When the data for the diffusion of the best prodrug of 5-FU (1-butyryloxymethylderivative) described in Mollgaard et al, supra, were used to calculate a flux for that prodrug, a flux of 17.2×10^-4 mg/cm^2.hr was obtained. […]

[3] = delivery of theophylline, previous study of Sloan et al; conditions: from flux of previous study
[4] = cited from earlier work; remark: listed apart in the source
[5] = hydrolysis / stability of adenine and cytosine adducts followed by UV (Example 1); format: physicochemical; conditions: water, dilute aqueous solution, about 1×10^-4 mole/l, read-out: t1/2 of hydrolysis (converted)
Description: The methanol UV spectra of the adducts of cytosine and adenine were stable for up to 2 hr. The water UV spectrum of the mono-adduct of adenine 1b was essentially identical with adenine itself under the same conditions. […] The rates of hydrolysis of three of the adducts (1d, 1e and 2d) were followed by UV at about 1×10^-4 mole/1 by following the decrease in intensity of their respective UV max with time. Spectra were monitored until stable spectra were produced which in all cases were essentially identical with the parent purine or pyrimidine. Plots of At-At.infin. versus time were used to determine t 1/2. The hydrolyses of the adducts were also followed by ^1 H NMR spectroscopy. Solutions (DMSO-d6) of the adducts at about 30 mg/ml, were diluted with D2 O in a dropwise fashion until a 1:1 ratio of the two solvents was reached. Integrations (5 times) of the spectra were taken after each addition of D2 O. Comparison of the average of the integrations of the N--CH2 --N absorptions and the integrations of the C2 --H, C8 --H, C5 --H or C6 --H absorptions was used to quantitate the amount of decomposition.

[6] = water, equilibrated three hours, 180 min; cited from earlier work
[7] = lipid and aqueous solubilities of 5-FC and its derivatives; format: physicochemical; conditions: for solubility at 48 h: isopropyl myristate, organic solvent or mixture, read-out: Solubility, IPM
physchem = conditions: organic solvent or mixture
[8] = solubility of 5-iodo-2'-deoxycytidine in various vehicles; format: physicochemical; conditions: for solubility: organic solvent or mixture
[9] = lipid and aqueous solubilities of 5-IDC and its prodrugs; format: physicochemical; conditions: for Solubility, IPM / solubility at 48 h: isopropyl myristate; for solubility: pH 5.5, water, apparent; for solubility at 48 h: organic solvent or mixture, read-out: Solubility, IPM
Description: The approximate aqueous solubilities were determined by the addition of 100 mg of solid to 1 ml distilled water (pH 5.5). Water was added until all the solid dissolved.
The lipid solubilities of 5-iodo-2'-deoxycytidine and its N-Mannich base prodrugs were determined in isopropyl myristate. Three suspensions of the drug or prodrugs were stirred for 48 hours and then filtered. The filtrates were then diluted with either methanol, for the parent drug or dry acetonitrile, for the N-Mannich base prodrugs. The concentration of compound in solution was determined by monitoring the UV absorption at 294 nm (ε=5.79×10^3 1/mole) for 5-IDC, 333 nm (ε=2.46×10^4) for the formamidine derivative and 296 nm for the derivatives. The aqueous solubilities were obtained as described above.

[10] = flux of theophylline in PG after first application of 5-IDC or prodrug (second application); format: in vitro ADME, hairless mice
Description: A suspension of theophylline in PG (Th/PG; 0.5 ml, 0.4M) was then applied to each diffusion cell. […] This phase of the diffusion cell experiment is labelled the second application.
The slopes for each phase of the plotted lines were obtained by linear regression analysis; the slopes were then divided by the surface area of the diffusion cells (4.9 cm^2) to obtain a value for flux (J) in mg/cm^2 /h. The reported fluxes are the average flux for the three cells.

[11] = phosphate buffer, pH 7.1
[12] = skins leached 120 hours, no methanol wash
Description: After this last sampling of the receptor phase (amount left in skin), the receptor phase was again changed. […] The cumulative amount of theophylline in the receptor phase was calculated as described above. This phase of the diffusion cell studies is termed the second application.
Several control studies were also performed. […] This was the baseline for the second application. […] Theophylline in PG was then applied to assess the effect of the methanol wash (used to remove the remaining donor phase from the first application) on the skin's permeability. […] The receptor phase was changed and a suspension of Th in PG was added as before.
The slopes for each phase of the plotted lines were obtained by linear regression analysis (r>0.990); the slopes were then divided by the surface area of the diffusion cells (4.9 cm^2) to obtain a value for flux (J) in mg/cm^2 /h. The reported fluxes are the average flux of the three diffusion cells.

[13] = cited from earlier work; remark: listed apart in the source
[14] = solubilities of prodrugs and parent drugs in selected solvents (Example 8); conditions: Solubility, suspensions sonicated for 3 hr
[15] = hydrolysis of 5-IDC derivatives in pH 7.1 buffer; format: physicochemical; conditions: 24°, read-out: half-life (t1/2) of hydrolysis
Description: The hydrolysis of the prodrugs in pH 7.1 buffer (0.05M,=0.15) was monitored by UV spectroscopy at 294 nm, by measuring the appearance of 5-IDC. A plot of log (At -A.infin.) versus time was linear so first-order reaction kinetics were assumed. Each hydrolysis was performed in triplicate at a constant temperature of 24.0°±0.1° and the half-lives and rates of hydrolysis were obtained using the Guggenheim method. Stock solutions of the prodrugs were made in dry acetonitrile, and 0.1 ml of the solution was added to 3 ml of buffer in a cuvette.

half-life at 100 µM [5]: ~180 min
SMILES: O=c1nc(NCN2CCOCC2)ccn1CN1CCOCC1 [Compound 2d, Bis-N^4,1-(4'-morpholinyl)methylcytosine]

solubility ([7]; distilled water (pH 5.5), approximate, decomposing): 7000 µg/mL and 50000 µM
solubility at 48 h [7]: 0.039 mM
solubility at 48 h ([7]; ±SD): 0.005 mg/mL
solubility (physchem; 1-octanol): 0.42 mg/mL (≈ 3.25 mM)
solubility (physchem; dmf): 3.52 mg/mL (≈ 27.3 mM)
solubility (physchem; ethylene glycol): 20 mg/mL (≈ 155 mM)
solubility (physchem; ethylene glycol:formamide (1:1)): 17.5 mg/mL (≈ 135 mM)
solubility (physchem; ethylene glycol:formamide (4:1)): 17.9 mg/mL (≈ 139 mM)
solubility (physchem; formamide): 13.7 mg/mL (≈ 106 mM)
solubility (physchem; ipm): 0.0045 mg/mL (≈ 0.0349 mM)
solubility (physchem; pg): 10.8 mg/mL (≈ 83.7 mM)
SMILES: Nc1nc(=O)[nH]cc1F [Compound 5-FC, 5-fluorocytosine]
aqueous solubility, literature value [6]: 120 mM (≈ 15.5 mg/mL)

solubility ([8]; 1-octanol, read-out: Solubility of 5-IDC, mole fraction): 0.96 mM
solubility ([8]; 1-propanol, read-out: Solubility of 5-IDC, mole fraction): 6.09 mM
Solubility of 5-IDC, mole fraction ([8]; IPM): 0 mole fraction (× 10^3)
solubility ([8]; eg, read-out: Solubility of 5-IDC, mole fraction): 89.2 mM
solubility ([8]; ethylene glycol, EG, ±SD, read-out: Solubility of 5-IDC): 31.5 mg/mL
solubility ([8]; formamide, For, ±SD, read-out: Solubility of 5-IDC): 56.9 mg/mL
solubility ([8]; formamide, read-out: Solubility of 5-IDC, mole fraction): 161 mM
solubility ([8]; 1-octanol, ±SD, read-out: Solubility of 5-IDC): 0.34 mg/mL
solubility ([8]; 1-propanol, ±SD, read-out: Solubility of 5-IDC): 2.15 mg/mL
solubility ([8]; pg, read-out: Solubility of 5-IDC, mole fraction): 55.7 mM
solubility ([8]; propylene glycol, PG, ±SD, read-out: Solubility of 5-IDC): 19.7 mg/mL
Solubility, IPM [9]: 0 M(× ^5)
Solubility, IPM ([9]; ±SD): 0 mg/ml(× 10^2)
solubility [9]: < 1000 µg/mL and < 2800 µM
X-intercept, initial phase (IPM): 5.0 h
X-intercept, steady-state (IPM): 14.0 h
duration of initial phase (IPM): 19 h
duration of steady-state delivery (IPM): 11 h
increase of flux of theophylline from PG ([10]; after 5-IDC): 1.3 times
X-intercept ([10]; first application in IPM): 0.6 h
Flux of theophylline from PG after first application ([10]; first application in IPM, Th/PG 0.4 M, ±SD): 246 (17) mg/cm^2 /h × 10^3
SMILES: Nc1nc(=O)n([C@H]2C[C@H](O)[C@@H](CO)O2)cc1I [Compound 5-IDC, 5-iodo-2'-deoxycytidine]
conversion of 5-IDC to 5-IDU (diffusion cells, HPLC): no conversion of 5-IDC to 5IDU was detected

Half-life of hydrolysis, cytosine derivatives [11]: 0.26(0.00) min
SMILES: CCN(CC)CNc1ccn(CN(CC)CC)c(=O)n1 [Cytosine (Et), Bis-N^4,1-(diethylamino)methylcytosine]

solubility ([14]; isopropyl myristate, organic solvent or mixture, IPM): 0.0044 mg/mL (≈ 0.0338 mM)
solubility ([14]; propylene glycol, organic solvent or mixture, PG): 15.1 mg/mL (≈ 116 mM)
solubility ([14]; water): 26.2 mg/mL (≈ 201 mM)
theoretical 24 hr value for 5-FU diffused ([2]; PG, 24 hr, 4.9 cm^2, calculated from literature flux and lag): 0.015 mg
SMILES: O=c1[nH]cc(F)c(=O)[nH]1 [VII, 5-Fluorouracil]
lag time ([1]; PG, calculated from literature data (Mollgaard et al)): 17 h
pKa [13]: 13.0

solubility at 48 h [9]: 0.029 mM
solubility at 48 h ([9]; ±SD): 0.013 mg/mL
solubility [9]: 20000 µg/mL and 44000 µM
half-life [15]: 12.8 ± 0.6 min
SMILES: O=c1nc(NCN2CCOCC2)c(I)cn1[C@H]1C[C@H](O)[C@@H](CO)O1 [XXIIIb, N^4-(1"-morpholinyl)methyl-5-iodo-2'-deoxycytidine hydrate]

Solubility, IPM ([9]; ±SD, 2880 min, hydrate): 1.6(0.5) mg/ml(× 10^2)
half-life [15]: 0.89 ± 0.06 min
SMILES: O=c1nc(NCN2CCCCC2)c(I)cn1[C@H]1C[C@H](O)[C@@H](CO)O1 [XXIIb, N^4-(1"-piperidinyl)methyl-5-iodo-2'-deoxycytidine hydrate]

Further lines, the compound ahead of its results:

SMILES: CCCC(=O)OCn1cc(F)c(=O)[nH]c1=O [1-butyryloxymethylderivative]
flux ([1]; not told): 17.2×10^-4 mg/cm^2.hr
times better than 5-FU in delivering 5-FU ([2]; from literature flux): 2.2 times

SMILES: Cn1c(=O)c2c(ncn2CO)n(C)c1=O [7-(hydroxymethyl)theophylline]
times more effective than theophylline in delivering theophylline [3]: about 6.5 times
flux ([4]; not told): 11.1×10^-2 mg/cm^2.hr

SMILES: CCCC(=O)OCn1cnc2c1c(=O)n(C)c(=O)n2C [7-butyryloxymethyl)theophylline]
times more effective than theophylline in delivering theophylline [3]: 4.2 times
flux ([4]; previous study (Sloan et al), IPM): 7.25×10^-2 mg/cm^2.hr

SMILES: c1nc(NCN2CCOCC2)c2ncn(CN3CCOCC3)c2n1 [Compound 1d, Bis-N^6,9-(4'-morpholinyl)methyladenine]
half-life at 100 µM [5]: ~30 min

SMILES: c1nc(NCN2CCCCC2)c2ncn(CN3CCCCC3)c2n1 [Compound 1e, Bis-N^6,9-(1'-piperidinyl)methyladenine]
half-life at 100 µM [5]: ~5 min

SMILES: Cn1c(=O)c2[nH]cnc2n(C)c1=O [I, Theophylline]
flux for Th/PG, baseline [12]: 1.41±0.09×10^-3 mg/cm2 /h
flux ([4]; not told): 1.72±0.13×10^-2 mg/cm^2.hr
